Data on 3 molecules can be found in ChEMBL document CHEMBL3576828, “Acredinones A and B, voltage-dependent potassium channel inhibitors from the sponge-derived fungus Acremonium sp. F9A015” (J Nat Prod, 2015).

In test [1] the target is T1, Potassium voltage-gated channel subfamily B member 1 (Homo sapiens, UniProt Q14721).
T1 sequence (Q14721 whole entry): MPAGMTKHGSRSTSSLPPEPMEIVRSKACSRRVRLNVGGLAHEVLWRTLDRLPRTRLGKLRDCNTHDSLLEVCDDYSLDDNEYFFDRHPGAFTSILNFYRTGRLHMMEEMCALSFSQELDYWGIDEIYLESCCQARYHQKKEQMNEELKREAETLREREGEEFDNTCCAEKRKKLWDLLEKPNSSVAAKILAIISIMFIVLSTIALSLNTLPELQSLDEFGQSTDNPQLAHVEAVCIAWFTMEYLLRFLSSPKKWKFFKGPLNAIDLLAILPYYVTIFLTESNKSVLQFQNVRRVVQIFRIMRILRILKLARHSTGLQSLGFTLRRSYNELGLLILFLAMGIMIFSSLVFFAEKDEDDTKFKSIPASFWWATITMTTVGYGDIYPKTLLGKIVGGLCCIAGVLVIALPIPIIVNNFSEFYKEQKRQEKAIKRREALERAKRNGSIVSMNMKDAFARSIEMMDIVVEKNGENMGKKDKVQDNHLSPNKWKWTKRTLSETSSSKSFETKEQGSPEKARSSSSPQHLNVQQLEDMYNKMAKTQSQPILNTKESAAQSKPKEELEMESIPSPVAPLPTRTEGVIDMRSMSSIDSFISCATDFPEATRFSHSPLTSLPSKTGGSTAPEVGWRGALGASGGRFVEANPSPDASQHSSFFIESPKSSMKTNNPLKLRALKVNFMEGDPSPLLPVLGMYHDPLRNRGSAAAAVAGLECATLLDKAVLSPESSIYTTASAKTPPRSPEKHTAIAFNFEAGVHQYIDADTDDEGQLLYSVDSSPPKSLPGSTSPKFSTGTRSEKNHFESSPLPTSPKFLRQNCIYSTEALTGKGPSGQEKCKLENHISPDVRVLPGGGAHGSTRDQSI
Briefly: (§1) Inhibition of Kv2.1 channel in […] INS1 cells assessed as inhibition of outward K+ current by electrophysiology/patch clamp technique. Format: cell-based.

Test [2] addresses T2, Potassium voltage-gated channel subfamily B member 1 (Homo sapiens) (UniProt Q14721).
T2 sequence (whole entry): T1 sequence (Q14721 whole entry)
The test is described as §1. Format: cell-based.

Calls of active or inactive are those of the source. The rule behind the calls is not given here.

As a reminder, the IC50 is the concentration that gives 50% inhibition. For `COc1cccc(OC)c1C(=O)c1c(O)cc(C)c(OC)c1C1=C(c2c(OC)cccc2OC)c2c(O)cc(C)c(OC)c2C1=O`, the IC50 in test [1] came out at 0.59 µM.

For the molecule `COc1cccc(OC)c1C(=O)c1c(O)cc(C)c(OC)c1CC(=O)c1c(OC)c(C)cc(O)c1C(=O)c1c(OC)cccc1OC`, in test [1], the IC50 came to 1 µM.

As for `COc1cccc(OC)c1C(=O)c1c(O)cc(C)c(OC)c1COC(C)=O`, the inhibition result in test [2] is “inactive”.
